Data as given in PubChem BioAssay (NCI).
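Briefly, cells in 96-well plates were exposed to five compound concentrations for 48 h, and endpoints were estimated by linear interpolation. TGI is the concentration that stops growth completely.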

Legend:
Assay in all cases: NCI tumour cell line growth inhibition, 48 h
COLO 205 colon = tested on: COLO 205 colon
DU-145 prostate = tested on: DU-145 prostate
EKVX NSCLC = tested on: EKVX NSCLC
HCC-2998 colon = tested on: HCC-2998 colon
MDA-MB-435 = tested on: MDA-MB-435
MDA-N = tested on: MDA-N
MOLT-4 leukemia = tested on: MOLT-4 leukemia
NCI-H460 lung = tested on: NCI-H460 lung
OVCAR-4 ovarian = tested on: OVCAR-4 ovarian
RXF 393 renal = tested on: RXF 393 renal
SF-539 CNS = tested on: SF-539 CNS
SK-MEL-2 melanoma = tested on: SK-MEL-2 melanoma
SK-MEL-28 melanoma = tested on: SK-MEL-28 melanoma
SNB-19 CNS = tested on: SNB-19 CNS
SNB-75 CNS = tested on: SNB-75 CNS
TK-10 renal = tested on: TK-10 renal
UACC-62 melanoma = tested on: UACC-62 melanoma
CAKI-1 renal = tested on: CAKI-1 renal
RPMI-8226 leukemia = tested on: RPMI-8226 leukemia
A498 renal = tested on: A498 renal

O=C1c2ccccc2C2C1C(c1ccccc1)C1(Cc3ccccc3C1=O)C2c1ccccc1 (stereo unspecified)
TGI (COLO 205 colon): > 100 µM
TGI (DU-145 prostate): > 100 µM
TGI (EKVX NSCLC): > 100 µM
TGI (HCC-2998 colon): > 100 µM
TGI (MDA-MB-435): > 100 µM
TGI (MDA-N): > 100 µM
TGI (MOLT-4 leukemia): > 100 µM
TGI (NCI-H460 lung): > 100 µM
TGI (OVCAR-4 ovarian): > 100 µM
TGI (RXF 393 renal): > 100 µM
TGI (SF-539 CNS): > 100 µM
TGI (SK-MEL-2 melanoma): > 100 µM
TGI (SK-MEL-28 melanoma): > 100 µM
TGI (SNB-19 CNS): > 100 µM
TGI (SNB-75 CNS): > 100 µM
TGI (TK-10 renal): > 100 µM
TGI (UACC-62 melanoma): > 100 µM

Oc1cc(N2CCCC2)ccc1/C=N/N1C(=S)N(c2ccccc2)C(=Nc2ccccc2)C1=Nc1ccccc1
TGI (CAKI-1 renal): > 100 µM
TGI (COLO 205 colon): > 100 µM
TGI (DU-145 prostate): > 100 µM
TGI (EKVX NSCLC): > 100 µM
TGI (HCC-2998 colon): > 100 µM
TGI (MDA-MB-435): > 100 µM
TGI (MDA-N): > 100 µM
TGI (MOLT-4 leukemia): > 100 µM
TGI (NCI-H460 lung): > 100 µM
TGI (RPMI-8226 leukemia): > 100 µM
TGI (RXF 393 renal): 46.1 µM
TGI (SF-539 CNS): > 100 µM
TGI (SK-MEL-2 melanoma): > 100 µM
TGI (SK-MEL-28 melanoma): > 100 µM
TGI (SNB-19 CNS): > 100 µM
TGI (TK-10 renal): > 100 µM
TGI (UACC-62 melanoma): > 100 µM

COC1(OC)C=CC2C1C1C=CC2C1(OC)OC (stereo unspecified)
TGI (A498 renal): > 100 µM
TGI (CAKI-1 renal): > 100 µM
TGI (COLO 205 colon): > 100 µM
TGI (DU-145 prostate): > 100 µM
TGI (EKVX NSCLC): > 100 µM
TGI (HCC-2998 colon): > 100 µM
TGI (MDA-MB-435): > 100 µM
TGI (MOLT-4 leukemia): > 100 µM
TGI (NCI-H460 lung): > 100 µM
TGI (OVCAR-4 ovarian): > 100 µM
TGI (RPMI-8226 leukemia): > 100 µM
TGI (RXF 393 renal): > 100 µM
TGI (SF-539 CNS): > 100 µM
TGI (SK-MEL-2 melanoma): > 100 µM
TGI (SK-MEL-28 melanoma): > 100 µM
TGI (SNB-19 CNS): > 100 µM
TGI (SNB-75 CNS): > 100 µM
TGI (TK-10 renal): > 100 µM
TGI (UACC-62 melanoma): > 100 µM

O=C(NNC(=S)NCc1ccccc1)c1csc(NC(=S)NC2CCCCC2)n1
TGI (A498 renal): > 100 µM
TGI (CAKI-1 renal): > 100 µM
TGI (COLO 205 colon): 49.6 µM
TGI (DU-145 prostate): > 100 µM
TGI (EKVX NSCLC): > 100 µM
TGI (HCC-2998 colon): > 100 µM
TGI (MDA-MB-435): 82.9 µM
TGI (MDA-N): 73.2 µM
TGI (MOLT-4 leukemia): > 100 µM
TGI (RPMI-8226 leukemia): 58.2 µM
TGI (SF-539 CNS): > 100 µM
TGI (SK-MEL-2 melanoma): 65.7 µM
TGI (SNB-19 CNS): > 100 µM
TGI (TK-10 renal): > 100 µM
TGI (UACC-62 melanoma): > 100 µM

CC(=O)n1cc(OP(=O)(Oc2ccccc2)Oc2ccccc2)c2ccccc21
TGI (A498 renal): > 100 µM
TGI (CAKI-1 renal): 54.3 µM
TGI (COLO 205 colon): 27.2 µM
TGI (DU-145 prostate): > 100 µM
TGI (MDA-MB-435): 50.3 µM
TGI (MDA-N): > 100 µM
TGI (MOLT-4 leukemia): 50.9 µM
TGI (NCI-H460 lung): 50.8 µM
TGI (OVCAR-4 ovarian): 73.3 µM
TGI (RPMI-8226 leukemia): 42.2 µM
TGI (SF-539 CNS): 42.5 µM
TGI (SK-MEL-2 melanoma): 77 µM
TGI (SK-MEL-28 melanoma): 86 µM
TGI (SNB-19 CNS): > 100 µM
TGI (TK-10 renal): > 100 µM
TGI (UACC-62 melanoma): 42.6 µM

N#CC(C#N)N=Nc1ccc(-c2nc3ccccc3o2)cc1
TGI (A498 renal): 31.2 µM
TGI (COLO 205 colon): 23.9 µM
TGI (DU-145 prostate): 31.5 µM
TGI (EKVX NSCLC): 29.9 µM
TGI (HCC-2998 colon): 14.7 µM
TGI (MDA-MB-435): 52.9 µM
TGI (MDA-N): 45.2 µM
TGI (MOLT-4 leukemia): 37 µM
TGI (NCI-H460 lung): 30.4 µM
TGI (OVCAR-4 ovarian): > 100 µM
TGI (SF-539 CNS): 26.1 µM
TGI (SK-MEL-2 melanoma): 31.4 µM
TGI (SK-MEL-28 melanoma): 32.3 µM
TGI (SNB-19 CNS): 60 µM
TGI (SNB-75 CNS): 66.5 µM
TGI (TK-10 renal): 38.2 µM
TGI (UACC-62 melanoma): 26.1 µM
